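Following 48 hours of exposure in 96-well plates, responses at five concentrations were used to interpolate endpoints linearly. The concentration for 50% growth inhibition is given as GI50.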 Active and inactive are the calls of the source. Rule as the data show it: active = GI50 up to about 1.1 µM and inactive = higher.
Key:
Assay in all cases: NCI-60 cell line screen, 48 h
SF-539 = tested on: SF-539
M14 = tested on: M14
TK-10 = tested on: TK-10
CCRF-CEM = tested on: CCRF-CEM
786-0 = tested on: 786-0
COLO 205 = tested on: COLO 205
NCI-H23 = tested on: NCI-H23
SW-620 = tested on: SW-620
MOLT-4 = tested on: MOLT-4
IGROV-1 = tested on: IGROV-1
OVCAR-5 = tested on: OVCAR-5
SK-OV-3 = tested on: SK-OV-3
Hs-578T = tested on: Hs-578T
SF-268 = tested on: SF-268
UACC-257 = tested on: UACC-257
NCI-H522 = tested on: NCI-H522
K562 = tested on: K562
A549 = tested on: A549
DU-145 = tested on: DU-145
MDA-MB-435 = tested on: MDA-MB-435
SN12C = tested on: SN12C
NCI/ADR-RES = tested on: NCI/ADR-RES
SK-MEL-5 = tested on: SK-MEL-5
RPMI-8226 = tested on: RPMI-8226
SNB-19 = tested on: SNB-19
HCT-116 = tested on: HCT-116
HOP-62 = tested on: HOP-62
BT-549 = tested on: BT-549
KM12 = tested on: KM12
SF-295 = tested on: SF-295
ACHN = tested on: ACHN
SK-MEL-2 = tested on: SK-MEL-2
EKVX = tested on: EKVX
T47D = tested on: T47D
U-251 = tested on: U-251
MDA-N = tested on: MDA-N
SK-MEL-28 = tested on: SK-MEL-28
MDA-MB-231 = tested on: MDA-MB-231
MCF7 = tested on: MCF7
NCI-H460 = tested on: NCI-H460
SNB-75 = tested on: SNB-75
LOX IMVI = tested on: LOX IMVI
HCC 2998 = tested on: HCC 2998
HL-60 = tested on: HL-60
OVCAR-8 = tested on: OVCAR-8
PC-3 = tested on: PC-3
HCT-15 = tested on: HCT-15
SR = tested on: SR
NCI-H226 = tested on: NCI-H226
HT-29 = tested on: HT-29
A498 = tested on: A498
Malme-3M = tested on: Malme-3M
HOP-92 = tested on: HOP-92
UACC-62 = tested on: UACC-62
OVCAR-3 = tested on: OVCAR-3
CAKI-1 = tested on: CAKI-1
RXF 393 = tested on: RXF 393
UO-31 = tested on: UO-31

Structure (SMILES): COC(=O)[C@H]1C[C@H]1NC(=O)C(CC(=O)OCc1ccccc1)NC(=O)OCc1ccccc1 (some centres not stated)
- GI50 (SF-539): 97.5 µM (inactive)
- GI50 (M14): 25.7 µM (inactive)
- GI50 (TK-10): 74.6 µM (inactive)
- GI50 (CCRF-CEM): 31.6 µM (inactive)
- GI50 (786-0): > 100 µM (inactive)
- GI50 (COLO 205): 24.4 µM (inactive)
- GI50 (NCI-H23): 41.8 µM (inactive)
- GI50 (SW-620): > 100 µM (inactive)
- GI50 (MOLT-4): 29.2 µM (inactive)
- GI50 (IGROV-1): 52.1 µM (inactive)
- GI50 (OVCAR-5): > 100 µM (inactive)
- GI50 (SK-OV-3): 55 µM (inactive)
- GI50 (Hs-578T): > 100 µM (inactive)
- GI50 (SF-268): 55.2 µM (inactive)
- GI50 (UACC-257): 86.7 µM (inactive)
- GI50 (NCI-H522): 40.8 µM (inactive)
- GI50 (K562): 59.7 µM (inactive)
- GI50 (A549): 43.8 µM (inactive)
- GI50 (DU-145): 73.5 µM (inactive)
- GI50 (MDA-MB-435): 35 µM (inactive)
- GI50 (SN12C): > 100 µM (inactive)
- GI50 (NCI/ADR-RES): 28.3 µM (inactive)
- GI50 (SK-MEL-5): 25.4 µM (inactive)
- GI50 (RPMI-8226): 19.1 µM (inactive)
- GI50 (SNB-19): > 100 µM (inactive)
- GI50 (HCT-116): 47.6 µM (inactive)
- GI50 (HOP-62): > 10 µM (inactive)
- GI50 (BT-549): 23.4 µM (inactive)
- GI50 (KM12): 31.6 µM (inactive)
- GI50 (SF-295): 50.7 µM (inactive)
- GI50 (ACHN): 36.8 µM (inactive)
- GI50 (SK-MEL-2): 18.6 µM (inactive)
- GI50 (EKVX): 44.3 µM (inactive)
- GI50 (T47D): 11.9 µM (inactive)
- GI50 (U-251): 81.5 µM (inactive)
- GI50 (MDA-N): 60.1 µM (inactive)
- GI50 (SK-MEL-28): 53.7 µM (inactive)
- GI50 (MDA-MB-231): > 100 µM (inactive)
- GI50 (MCF7): 44.1 µM (inactive)
- GI50 (NCI-H460): 31.2 µM (inactive)
- GI50 (SNB-75): 36.2 µM (inactive)
- GI50 (LOX IMVI): 83 µM (inactive)
- GI50 (HCC 2998): 88.3 µM (inactive)
- GI50 (HL-60): 17.9 µM (inactive)
- GI50 (OVCAR-8): 40 µM (inactive)
- GI50 (PC-3): 35.3 µM (inactive)
- GI50 (HCT-15): 73.1 µM
- GI50 (SR): 29.8 µM (inactive)
- GI50 (NCI-H226): 89.5 µM (inactive)
- GI50 (HT-29): 39 µM (inactive)
- GI50 (A498): 61.8 µM (inactive)

Structure (SMILES): CCSC1=N/C(=C/c2ccccc2O)C(=O)N1
- GI50 (SF-539): 20.7 µM (inactive)
- GI50 (M14): > 100 µM (inactive)
- GI50 (Malme-3M): > 100 µM (inactive)
- GI50 (CCRF-CEM): > 100 µM (inactive)
- GI50 (786-0): 28.5 µM (inactive)
- GI50 (COLO 205): > 100 µM (inactive)
- GI50 (HOP-92): 89.1 µM (inactive)
- GI50 (NCI-H23): > 100 µM (inactive)
- GI50 (SW-620): > 100 µM (inactive)
- GI50 (MOLT-4): > 100 µM (inactive)
- GI50 (IGROV-1): 87.3 µM (inactive)
- GI50 (OVCAR-5): > 100 µM (inactive)
- GI50 (SK-OV-3): 31.7 µM (inactive)
- GI50 (Hs-578T): 33.7 µM (inactive)
- GI50 (SF-268): 83.2 µM (inactive)
- GI50 (UACC-257): > 100 µM (inactive)
- GI50 (NCI-H522): > 100 µM (inactive)
- GI50 (K562): 61 µM (inactive)
- GI50 (A549): > 100 µM (inactive)
- GI50 (DU-145): > 100 µM (inactive)
- GI50 (MDA-MB-435): > 100 µM (inactive)
- GI50 (SN12C): 67.1 µM (inactive)
- GI50 (NCI/ADR-RES): 45.5 µM (inactive)
- GI50 (SK-MEL-5): > 100 µM (inactive)
- GI50 (UACC-62): > 100 µM (inactive)
- GI50 (OVCAR-3): > 100 µM (inactive)
- GI50 (RPMI-8226): > 100 µM (inactive)
- GI50 (SNB-19): > 100 µM (inactive)
- GI50 (HCT-116): > 100 µM (inactive)
- GI50 (HOP-62): 41.1 µM (inactive)
- GI50 (BT-549): > 100 µM (inactive)
- GI50 (KM12): 51.1 µM (inactive)
- GI50 (SF-295): 91 µM (inactive)
- GI50 (ACHN): 39.2 µM (inactive)
- GI50 (SK-MEL-2): > 100 µM (inactive)
- GI50 (EKVX): > 100 µM (inactive)
- GI50 (T47D): 60.7 µM (inactive)
- GI50 (U-251): 38.7 µM (inactive)
- GI50 (MDA-N): > 100 µM (inactive)
- GI50 (SK-MEL-28): > 100 µM (inactive)
- GI50 (MDA-MB-231): 90.6 µM (inactive)
- GI50 (MCF7): > 100 µM (inactive)
- GI50 (NCI-H460): > 100 µM (inactive)
- GI50 (SNB-75): 25.1 µM (inactive)
- GI50 (LOX IMVI): 52 µM (inactive)
- GI50 (CAKI-1): > 100 µM (inactive)
- GI50 (HCC 2998): > 100 µM (inactive)
- GI50 (HL-60): > 100 µM (inactive)
- GI50 (OVCAR-8): 41.9 µM (inactive)
- GI50 (PC-3): > 100 µM (inactive)
- GI50 (HCT-15): > 100 µM
- GI50 (SR): 63 µM (inactive)
- GI50 (RXF 393): 26.4 µM (inactive)
- GI50 (NCI-H226): 31.9 µM (inactive)
- GI50 (HT-29): > 100 µM (inactive)
- GI50 (UO-31): 38.5 µM (inactive)

Structure (SMILES): COc1ccc(/N=c2/oc3ccccc3cc2C(N)=O)cc1
- GI50 (SF-539): 23.1 µM (inactive)
- GI50 (M14): 55.2 µM (inactive)
- GI50 (TK-10): 22.5 µM (inactive)
- GI50 (CCRF-CEM): > 100 µM (inactive)
- GI50 (786-0): 23.7 µM (inactive)
- GI50 (COLO 205): > 100 µM (inactive)
- GI50 (HOP-92): 27.8 µM (inactive)
- GI50 (NCI-H23): 29.8 µM (inactive)
- GI50 (SW-620): > 100 µM (inactive)
- GI50 (MOLT-4): > 100 µM (inactive)
- GI50 (IGROV-1): 24.5 µM (inactive)
- GI50 (SK-OV-3): 20 µM (inactive)
- GI50 (Hs-578T): 18.7 µM (inactive)
- GI50 (SF-268): 17.9 µM (inactive)
- GI50 (UACC-257): > 100 µM (inactive)
- GI50 (NCI-H522): 13.4 µM (inactive)
- GI50 (K562): > 100 µM (inactive)
- GI50 (A549): 42 µM (inactive)
- GI50 (DU-145): > 100 µM (inactive)
- GI50 (MDA-MB-435): 92.5 µM (inactive)
- GI50 (SN12C): > 100 µM (inactive)
- GI50 (NCI/ADR-RES): 39 µM (inactive)
- GI50 (SK-MEL-5): > 100 µM (inactive)
- GI50 (UACC-62): 34.8 µM (inactive)
- GI50 (OVCAR-3): > 100 µM (inactive)
- GI50 (RPMI-8226): > 100 µM (inactive)
- GI50 (SNB-19): 1.91 µM (inactive)
- GI50 (HCT-116): 26 µM (inactive)
- GI50 (HOP-62): 17.2 µM (inactive)
- GI50 (BT-549): 32.3 µM (inactive)
- GI50 (KM12): 43.3 µM (inactive)
- GI50 (SF-295): 26.3 µM (inactive)
- GI50 (ACHN): 18.4 µM (inactive)
- GI50 (SK-MEL-2): 55.2 µM (inactive)
- GI50 (EKVX): > 100 µM (inactive)
- GI50 (T47D): > 100 µM (inactive)
- GI50 (U-251): 33.3 µM (inactive)
- GI50 (MDA-N): > 100 µM (inactive)
- GI50 (SK-MEL-28): > 100 µM (inactive)
- GI50 (MDA-MB-231): 30.5 µM (inactive)
- GI50 (MCF7): 22.5 µM (inactive)
- GI50 (NCI-H460): > 100 µM (inactive)
- GI50 (SNB-75): 36.6 µM (inactive)
- GI50 (LOX IMVI): 33.7 µM (inactive)
- GI50 (CAKI-1): 13.6 µM (inactive)
- GI50 (HCC 2998): > 100 µM (inactive)
- GI50 (HL-60): > 100 µM (inactive)
- GI50 (OVCAR-8): 27.4 µM (inactive)
- GI50 (PC-3): 80 µM (inactive)
- GI50 (HCT-15): > 100 µM
- GI50 (SR): > 100 µM (inactive)
- GI50 (RXF 393): 40.5 µM (inactive)
- GI50 (NCI-H226): 65.9 µM (inactive)
- GI50 (HT-29): > 100 µM (inactive)
- GI50 (UO-31): 2.33 µM (inactive)
